# Patent US12440500B2, “Phytoecdysones and the derivatives thereof for use in the treatment of neuromuscular diseases” (BIOPHYTIS, priority 2019, dated 2025)
# Assays:
# Format in all cases: in vivo, mouse
# SMN protein = test: Western blot, level of expression of the SMN protein in SMA mice
# Procedure: The frozen muscle Plantaris was homogenized in extraction buffer by mechanical grinding. The supernatant containing the protein extract was sampled, then the protein extracts were then dosed according to the Lowry protein assay. An electrophoresis on SDS-PAGE gel was conducted, then the separated proteins were transferred onto membranes. The primary antibodies used were the following: mouse monoclonal anti-SMN (1:5,000), rabbit polyclonal anti-Ser 473 phospho-AKT (1:1000), rabbit polyclonal anti-AKT ( 1/100), rabbit monoclonal anti phospho-ERK ½ (1:500), anti-MAP Kinase ½ (ERK ½) (1:1000). […] The optical density of each specific band was quantified with image processing software by subtracting the background and by normalizing with the optical density of the β-actin bands. For the controls treated with the vehicle, the values obtained were determined at 1 and the values of the other groups were normalized in relation to these controls and expresses as a relative quantity. […] The quantitative values of pAKT at the Plantaris represent 3 mice per group treated with the vehicle (control or SMA) and 4 mice treated with BIO101. The quantitative values of pERK at the Plantaris represent at least 4 mice per group. The quantitative values of SMN represent n=2. […]
# [1] = test system: slow, intermediate and fast motor neurons of SMA mice; test: Motor neuron sub-populations (ChAT/ERRβ/MMP9 co-labeling, lumbar spinal cord)
# Procedure: In a manner complementary to the quantitative analysis of the number of motor neurons and of the size of their soma as well as the qualitative study concerning their location (medial or lateral in the ventral spinal cord), we studied the impact of the treatment by BIO101 on the protection of the sub-populations of motor neurons (slow motor neurons, intermediate motor neurons and fast motor neurons). This qualitative analysis of the sub-populations of motor neurons was carried out on thick cross-sections of the lumbar region of the spinal cord (L1-L5) of control or SMA mice treated or not with BIO101 by immunofluorescent labeling with Choline Acetyltransferase such as was described hereinabove (Biondi et al., 2008; Branchu et al., 2013) as well as an analysis of the type of motor neurons by immunofluorescence co-labeling with Estrogen-related receptor-β (ERRβ), a specific marker of the slow motor neurons, or with Matrix metallopeptidase 9 (MMP9), a specific marker of the fast motor neurons.
# The anesthetized mice underwent an intracardiac infusion with PBS. The spinal cords of the mice were taken, fixed then rinsed. The lumbar region of the spinal cords (L1-L5) was coated in a 4% solution of agarose. 50 μm cross-sections were made using a vibratome over the entire length of the sample. One section every 5 sections of spinal cord was then used for the immunohistochemical analyses. […]
# [2] = test system: muscles Soleus, Plantaris and Tibialis of SMA mice; test: Histological analysis of muscle cross-sections (Hematoxylin-Eosin): number and cross-section surface of muscle fibers
# Procedure: At P11, one hour after their last gavage, the treated mice were anaesthetized with pentobarbital 1% at 6 μL/g of mouse then the extensor muscles Soleus, with a mixed typology, extensor Plantaris, with a fast typology, and flexor Tibialis, with a fast typology, were sampled in order to conduct histological or molecular studies. After sampling, the muscles Soleus, Plantaris and Tibialis were included individually in a preservation medium then frozen in cooled isopentane. For each muscle, medial cross-sections 10 μm thick were realized. These sections were stained with Hematoxyline-Eosin, dehydrated and mounted in an inclusion medium. The images of these sections were taken with a microscope (with a magnification ×200). In order to obtain images with an impression of relief, the differential interference contrast technique was used. From these images, the number of muscle fibers of each muscle and the cross-section surface of 20% of these fibers were counted using image processing software (FIG. 2).
structure (smiles),measurement,setting,value
"CC(C)(O)CC[C@@H](O)[C@](C)(O)[C@H]1CC[C@@]2(O)C3=CC(=O)[C@@H]4C[C@@H](O)[C@@H](O)C[C@]4(C)[C@H]3CC[C@]12C [BIO101, 20-hydroxyecdysone]",level of expression of SMN,"SMN protein; muscle Plantaris, SMA mice treated P0 to P11",no modification
same,level of SMN,"SMN protein; spinal cord, SMA mice treated for 11 days",does not allow for the restoration
same,number of fast motor neurons (ChAT+MMP9+),"[1]; SMA mice treated P0 to P11 (SMA vehicle 11), p<0.05",14
same,number of slow motor neurons (ChAT+ERRβ+),"[1]; between healthy vehicle, SMA vehicle and SMA treated groups",does not vary significantly
same,proportion of muscle fibers with cross-section surface greater than 300 μm^2,"[2]; Plantaris, FIG. 13B",increase
same,proportion of muscle fibers with cross-section surface less than 200 μm^2,"[2]; Plantaris, FIG. 13B",decrease
same,atrophy of the muscle fibers (cross-section surface) in relation to healthy control mice,"[2]; Plantaris, P11, SMA mice treated P0 to P11 (SMA vehicle 46%)",17.9%
same,proportion of fibers with cross-section surface between 0 and 100 μm^2,"[2]; Plantaris, versus SMA vehicle",decrease
same,proportion of fibers with cross-section surface between 200 and 400 μm^2,"[2]; Plantaris, versus SMA vehicle",increase
same,proportion of muscle fibers with cross-section surface greater than 300 μm^2,"[2]; Soleus, FIG. 13C",increase
same,proportion of muscle fibers with cross-section surface less than 200 μm^2,"[2]; Soleus, FIG. 13C",decrease
same,atrophy of the muscle fibers (cross-section surface) in relation to healthy control mice,"[2]; Soleus, P11, SMA mice treated P0 to P11 (SMA vehicle 50.2%)",37.8%
same,proportion of fibers with cross-section surface between 100 and 200 μm^2,"[2]; Soleus, versus SMA vehicle",decrease
same,proportion of fibers with cross-section surface between 200 and 400 μm^2,"[2]; Soleus, versus SMA vehicle",increase
same,atrophy of the muscle fibers (cross-section surface) in relation to healthy control mice,"[2]; Tibialis, P11, SMA mice treated P0 to P11 (SMA vehicle 56.1%)",32.7%
same,number of muscle fibers,"[2]; Tibialis, SMA mice treated P0 to P11, 50 mg/kg","2,358 fibers"
same,increase in number of muscle fibers compared to vehicle,"[2]; Tibialis, SMA mice treated P0 to P11, p<0.05",14%
same,proportion of fibers with cross-section surface between 400 and 800 μm^2,"[2]; Tibialis, versus SMA vehicle",significant increase
same,proportion of fibers with cross-section surface between 100 and 200 μm^2,"[2]; Tibialis, versus SMA vehicle, p<0.05",decreases significantly
